Data published in PubChem BioAssay AID190 (DTP/NCI, 2004).
Toxic doses and inconclusive results are not listed. How the source made its calls: active means survival T/C of 150% or more; inactive means T/C below 125% in these data.

Tested on: AKR/Lw mice, AKR lymphoma ip, median survival T/C
Experiment: NCI In Vivo Anticancer Drug Screen. Data for tumor model Lymphoma AKR (Transplanted) (intraperitoneal) in AKR/Lw mice
Details: endpoint: median survival time, higher = longer survival
Procedure: The antitumor activity of compounds was measured in mice bearing transplantable tumors. Survival or tumor size were measured and the results are expressed as the measurement made in the treated group (T) divided by the measurement made in the vehicle treated control group (C). The tumor model used in this assay is Lymphoma AKR (Transplanted) (intraperitoneal) in AKR/Lw mice

[1] = dose: 100.0 mg/kg/injection, schedule: Q01DX001 (ip), vehicle: Klucel (hydroxypropylcellulose) (HPC)
[2] = dose: 100.0 mg/kg/injection, schedule: Q04DX003 (ip), vehicle: Klucel (hydroxypropylcellulose) (HPC)
[3] = dose: 200.0 mg/kg/injection, schedule: Q01DX001 (ip), vehicle: Klucel (hydroxypropylcellulose) (HPC)
[4] = dose: 200.0 mg/kg/injection, schedule: Q04DX003 (ip), vehicle: Klucel (hydroxypropylcellulose) (HPC)
[5] = dose: 400.0 mg/kg/injection, schedule: Q01DX001 (ip), vehicle: Klucel (hydroxypropylcellulose) (HPC)

Measured: T/C

CO[C@H]1/C=C/O[C@@]2(C)Oc3c(C)c(O)c4c(O)c(c(/C=N/N5C(C)CN(Cc6ccccc6)CC5C)c(O)c4c3C2=O)NC(=O)/C(C)=C\C=C\[C@H](C)[C@H](O)[C@@H](C)[C@@H](O)[C@@H](C)[C@H](OC(C)=O)[C@@H]1C (some centres undefined)
inactive: dose: 12.5 mg/kg/injection, schedule: Q01DX008 (ip), vehicle: Klucel (hydroxypropylcellulose) (HPC) 99 % of control | dose: 25.0 mg/kg/injection, schedule: Q01DX008 (ip), vehicle: Klucel (hydroxypropylcellulose) (HPC) 104 % of control | dose: 50.0 mg/kg/injection, schedule: Q01DX008 (ip), vehicle: Klucel (hydroxypropylcellulose) (HPC) 91 % of control | dose: 100.0 mg/kg/injection, schedule: Q01DX008 (ip), vehicle: Klucel (hydroxypropylcellulose) (HPC) 103 % of control | dose: 200.0 mg/kg/injection, schedule: Q01DX008 (ip), vehicle: Klucel (hydroxypropylcellulose) (HPC) 96 % of control | dose: 400.0 mg/kg/injection, schedule: Q01DX008 (ip), vehicle: Klucel (hydroxypropylcellulose) (HPC) 95 % of control

S=c1[nH]nc(NC2CCCCC2)s1
inactive: [1] 100 % of control | [2] 100 % of control | [3] 90 % of control | [4] 90 % of control | [5] 87 % of control

O=C(Cc1ccc2cc3c(cc2c1)OCO3)NCCc1ccc2c(c1)OCO2
inactive: [1] 92 % of control | [2] 100 % of control | [3] 94 % of control | [4] 96 % of control | [5] 100 % of control | dose: 400.0 mg/kg/injection, schedule: Q04DX003 (ip), vehicle: Klucel (hydroxypropylcellulose) (HPC) 92 % of control

CC(C)n1c(=S)[nH]c2ccccc2c1=O
inactive: [1] 90 % of control | [3] 118 % of control | [5] 104 % of control

COc1cc([C@@H]2c3cc4c(cc3C[C@H]3COC(=O)[C@@H]32)OCO4)cc(OC)c1OC
inactive: dose: 5.0 mg/kg/injection, schedule: Q01DX009 (ip), vehicle: Klucel (hydroxypropylcellulose) (HPC) 107 % of control

c1cc2cc3c(cc2cc1CC1=NCCc2cc4c(cc21)OCO4)OCO3
inactive: dose: 100.0 mg/kg/injection, schedule: Q01DX001 (ip), vehicle: other 105 % of control | dose: 100.0 mg/kg/injection, schedule: Q04DX003 (ip), vehicle: other 100 % of control | dose: 200.0 mg/kg/injection, schedule: Q01DX001 (ip), vehicle: other 100 % of control | dose: 200.0 mg/kg/injection, schedule: Q04DX003 (ip), vehicle: other 100 % of control | dose: 400.0 mg/kg/injection, schedule: Q01DX001 (ip), vehicle: other 102 % of control | dose: 400.0 mg/kg/injection, schedule: Q04DX003 (ip), vehicle: other 100 % of control

COc1cc([C@@H]2c3cc4c(c(O)c3C[C@H]3COC(=O)[C@@H]32)OCO4)cc(OC)c1O
inactive: dose: 0.12 mg/kg/injection, schedule: Q01DX009 (ip), vehicle: Klucel (hydroxypropylcellulose) (HPC) 105 % of control | dose: 0.25 mg/kg/injection, schedule: Q01DX009 (ip), vehicle: Klucel (hydroxypropylcellulose) (HPC) 97 % of control
